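Compound exposure: 48 hours, 5 concentrations, 96-well plates. Abbreviation: GI50, concentration required for 50% inhibition of growth.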 Active and inactive are the calls of the source. Cut-off read from the data, not from the text of the source: active = GI50 up to about 1.1 µM and inactive = higher.
Experiments:
Assay in all cases: NCI anticancer screen, dose series, 48 h
UACC-62 = system: UACC-62
A549 = system: A549
HT-29 = system: HT-29
SK-MEL-5 = system: SK-MEL-5
IGROV-1 = system: IGROV-1
HCT-15 = system: HCT-15
786-0 = system: 786-0
SNB-78 = system: SNB-78
HCC 2998 = system: HCC 2998
SF-539 = system: SF-539
EKVX = system: EKVX
KM12 = system: KM12
OVCAR-3 = system: OVCAR-3
SN12C = system: SN12C
MOLT-4 = system: MOLT-4
UACC-257 = system: UACC-257
RXF 393 = system: RXF 393
SW-620 = system: SW-620
SF-295 = system: SF-295
NCI-H23 = system: NCI-H23
LXFL 529 = system: LXFL 529
SK-MEL-28 = system: SK-MEL-28
UO-31 = system: UO-31
SNB-19 = system: SNB-19
DLD-1 = system: DLD-1
SK-OV-3 = system: SK-OV-3
SK-MEL-2 = system: SK-MEL-2
HOP-62 = system: HOP-62
SF-268 = system: SF-268
DMS-114 = system: DMS-114
ACHN = system: ACHN
A498 = system: A498
K562 = system: K562
OVCAR-4 = system: OVCAR-4
Malme-3M = system: Malme-3M
M14 = system: M14
OVCAR-8 = system: OVCAR-8
DMS-273 = system: DMS-273
CAKI-1 = system: CAKI-1
HOP-18 = system: HOP-18
RXF 631 = system: RXF 631
U-251 = system: U-251
LOX IMVI = system: LOX IMVI
OVCAR-5 = system: OVCAR-5
M19-MEL = system: M19-MEL
CCRF-CEM = system: CCRF-CEM
SNB-75 = system: SNB-75
NCI-H460 = system: NCI-H460
TK-10 = system: TK-10
KM-20L2 = system: KM-20L2
RPMI-8226 = system: RPMI-8226
COLO 205 = system: COLO 205
HL-60 = system: HL-60
HOP-92 = system: HOP-92
SR = system: SR
HCT-116 = system: HCT-116
NCI-H522 = system: NCI-H522
NCI-H226 = system: NCI-H226

Measured: GI50

CC1CCCP(=O)(c2ccccc2)CC1 (stereo unspecified)
> 100 µM: HCT-15
active: HOP-18 0.202 µM
inactive: UACC-62 > 100 µM | A549 > 100 µM | HT-29 > 100 µM | SK-MEL-5 > 100 µM | IGROV-1 > 100 µM | 786-0 > 100 µM | SNB-78 > 100 µM | HCC 2998 > 100 µM | SF-539 > 100 µM | EKVX > 100 µM | KM12 > 100 µM | OVCAR-3 > 100 µM | SN12C > 100 µM | MOLT-4 > 100 µM | UACC-257 > 100 µM | RXF 393 > 100 µM | SW-620 > 100 µM | SF-295 > 100 µM | NCI-H23 > 100 µM | LXFL 529 > 100 µM | SK-MEL-28 > 100 µM | UO-31 > 100 µM | SNB-19 > 100 µM | DLD-1 > 100 µM | SK-OV-3 > 100 µM | SK-MEL-2 > 100 µM | HOP-62 > 100 µM | SF-268 > 100 µM | DMS-114 > 100 µM | ACHN > 100 µM | A498 > 100 µM | K562 > 100 µM | OVCAR-4 > 100 µM | Malme-3M > 100 µM | M14 > 100 µM | OVCAR-8 > 100 µM | DMS-273 > 100 µM | CAKI-1 > 100 µM | RXF 631 > 100 µM | U-251 > 100 µM | LOX IMVI > 100 µM | OVCAR-5 > 100 µM | M19-MEL > 100 µM | CCRF-CEM > 100 µM | SNB-75 > 100 µM | NCI-H460 > 100 µM | TK-10 > 100 µM | KM-20L2 > 100 µM | RPMI-8226 > 100 µM | COLO 205 > 100 µM

COC(=O)C1=CC2C=CC(C1C(=O)OC)C1C(C(=O)OC)=C(C(=O)OC)C(C(=O)OC)=C(C(=O)OC)C21OC (stereo unspecified)
inactive: UACC-62 > 100 µM | A549 > 100 µM | HL-60 > 100 µM | HT-29 > 100 µM | SK-MEL-5 > 100 µM | IGROV-1 > 100 µM | 786-0 > 100 µM | SNB-78 > 100 µM | HCC 2998 > 100 µM | SF-539 > 100 µM | EKVX > 100 µM | HOP-92 > 100 µM | OVCAR-3 > 100 µM | SN12C > 100 µM | MOLT-4 > 100 µM | UACC-257 > 100 µM | RXF 393 > 100 µM | SW-620 > 100 µM | SF-295 > 100 µM | NCI-H23 > 100 µM | LXFL 529 > 100 µM | SK-MEL-28 > 100 µM | UO-31 > 100 µM | SR > 100 µM | DLD-1 > 100 µM | SK-OV-3 > 100 µM | SK-MEL-2 > 100 µM | HOP-62 > 100 µM | SF-268 > 100 µM | HCT-116 > 100 µM | DMS-114 > 100 µM | ACHN > 100 µM | A498 > 100 µM | OVCAR-4 > 100 µM | Malme-3M > 100 µM | M14 > 100 µM | OVCAR-8 > 100 µM | DMS-273 > 100 µM | CAKI-1 > 100 µM | HOP-18 > 100 µM | RXF 631 > 100 µM | NCI-H522 > 100 µM | U-251 > 100 µM | LOX IMVI > 100 µM | OVCAR-5 > 100 µM | M19-MEL > 100 µM | NCI-H226 > 100 µM | SNB-75 > 100 µM | NCI-H460 > 100 µM | TK-10 > 100 µM | KM-20L2 > 100 µM | RPMI-8226 > 100 µM | COLO 205 > 100 µM
> 100 µM: HCT-15

From ChEMBL document CHEMBL1201862, “PubChem BioAssay data set” (2004)
